Source: patent US10647680B2, “Urea compound, preparation method therefor and medical use thereof” (Ancureall Pharmaceutical (Shanghai) Co., Ltd., priority 2016, dated 2020)

Tests used:
Assay type in all cases: cell-based
[1] = tested on: Calu-3 (HER2/ErbB2 amp); test: In vitro growth inhibition (GI50), Calu-3; conditions: Homo sapiens
From the text: (§1) Tumor cell line is an effective cell model for studying the inhibition of tumor cell growth or proliferation in vitro. In the present invention, a representative tumor cell line was selected to determine the cell growth inhibition activity of the present compound. All cell lines used were from ATCC, DSMZ, and the Cell Bank of the Chinese Academy of Sciences. Cell culture conditions and methods were in accordance with the requirements of each cell line. Cells were subcultured in vitro for no more than 3 passages each time, and as required, single-clone purification and identification of cell lines could be carried out.
(§2) The cell culture media used were RPMI1640 (Gibco), MEM (Gibco), McCOY'S5A (Gibco), and IMDM (Gibco). The complete medium was prepared by supplement with 5˜20% fetal calf serum (Gibco), 1% double-antibiotics (10000 units/mL penicillin and 10000 units/mL), 2 mM glutamine or 1 mM sodium pyruvate, respectively.
(§3) Human gastric cancer cell line NCI-N87 (HER2/ErbB2 amp, ATCC), human breast cancer cell line HCC1954 (HER2/ErbB2 amp, ATCC) and ZR-75-30 (HER2/ErbB2 amp, ATCC), human adenocarcinoma cell line AU565 (HER2/ErbB2 amp, ATCC), human lung squamous cell carcinoma cell line NCI-H2170 (HER2/ErbB2 amp, ATCC), human bronchioalveolar adenocarcinoma cell line NCI-H1781 (HER2/ErbB2 Ins G776V,C mutant type, ATCC) were cultured with a 1×RPMI1640 complete medium (10% FBS), respectively. Human lung adenocarcinoma cell line Calu-3 (HER2/ErbB2 amp, ATCC) was cultured with 1×MEM, 10% FBS, 1% double antibody, 1% NEAA (Gibco), 2 mM glutamine and 1 mM sodium pyruvate. The human breast cancer cell line SK-BR-3 (HER2/ErbB2 amp, ATCC) was cultured with a McCOY'S5A complete medium (10% FBS).
(§4) Adherent cells were digested with 0.25% pancreatin-EDTA (Gibco). The suspension cells were collected by centrifugation. The supernatant was discarded and the cell pellet was resuspended and counted. Different cell concentrations (5˜10×10^4 cells/mL) were prepared according to the growth cycle of each cell line and then seeded on a 96-well plate (Corning), 100 μL/well. The cells were incubated overnight at 37° C., 5% CO2. The compounds were added to the cells on the second day with 2 wells in parallel. The final concentration of organic solvent shall not exceed 1%. The cells were continually incubated for 3 to 5 days, and then subjected to MTT assay.
(§5) The compound of the present invention and the control compound were dissolved in DMSO (Sigma) respectively, with the purity of more than 98%. The compound was stored in a concentration of 10 mM at −20° C. and diluted to 2- or 10-fold series prior to use.
(§6) Dojindo CCK8 reagent kit was used as MTT assay. THERMO […] FC meter was used as microplate reader.
(§7) For adherent cells, culture medium was removed and immediately replaced with the fresh prepared medium which contains 10% CCK8 reagent (100 μL/well). For the suspension cells, CCK8 was directly added to 10% of the final concentration. The cells were continually incubated for 1˜4 h. When a dark yellow color could be observed in the solvent control wells, the absorbance value at OD450 nm was measured and the cell growth rate was calculated according to the following formula: Cell Growth Rate (%)=100*(T−T0)/(C−T0) T=optical density of drug treatment cell well—optical density of blank control well; T0=optical density of cell well before drug treatment—optical density of blank control well; C=optical density of cell well of solvent control group—optical density of blank control well. The concentration value of 50% inhibition of cell growth (GI50) was calculated according to the drug concentration and cell growth rate curve. The experiment was independently repeated 1˜3 times, and subject to biological statistical analysis. 4. Experimental Results
(§8) Tumor cell growth inhibition test was performed by selecting representative compounds (compounds 4, 11, 12, 16, 27, 68, 71, 77, 79, 89 and 116 of the present invention). […]

[2] = tested on: U937 (FLT3 wild-type); test: In vitro growth inhibition (GI50), U937; conditions: Homo sapiens, U-937; Cell lines of leukemia; read-out: GI 50 U937 FLT 3(WT)
[3] = tested on: SK-BR-3 (HER2/ErbB2 amp); test: In vitro growth inhibition (GI50), SK-BR-3; conditions: Homo sapiens, SK-BR3, HER2/ErbB2 amp+
From the text: as §1, §2, §3, §4, §5, §6, §7, §8

| Structure (SMILES) | GI50 [1] [nM] | GI50 [2] [nM] | GI50 [3] [nM] |
| --- | --- | --- | --- |
| CC(C)(C)c1cc(N)n(C(=O)Nc2ccc(-n3cnc4ccccc43)cc2)n1 [Compound 116, 5-amino-3-tert-butyl-pyrazol-1-carboxylic acid (4-benzimidazol-1-yl-phenyl)-amide] | > 2500 | > 1000 | > 2500 |
| CC(C)(C)c1cc(NC(=O)Nc2ccc(-n3cnc4cc(OCCN5CCOCC5)ccc43)cc2)no1 [Compound 16, 1-(5-tert-butyl-isoxazol-3-yl)-3-{4-[5-(2-morpholin-4-yl-ethoxyl)-benzimidazol-1-yl]-phenyl}-urea] | > 2500 | > 1000 | > 2500 |
| CC(C)(C)c1cc(NC(=O)Nc2ccc(-n3cnc4ccccc43)cc2)[nH]n1 [Compound 68, 1-(4-benzimidazol-1-yl-phenyl)-3-(5-tert-butyl-2H-pyrazol-3-yl)-urea] | > 2500 | > 1000 | > 2500 |
| COCCOc1ccc2c(c1)ncn2-c1ccc(NC(=O)Nc2cc(C(C)(C)C)n[nH]2)cc1 [Compound 77, 1-(5-tert-butyl-2H-pyrazol-3-yl)-3-{4-[5-(2-methoxyl-ethoxyl)-benzimidazol-1-yl]-phenyl}-urea] | > 2500 | > 1000 | > 2500 |
| CC(C)(C)c1cc(NC(=O)Nc2ccc(-n3cnc4cc(OCCO)ccc43)cc2)[nH]n1 [Compound 79, 1-(5-tert-butyl-2H-pyrazol-3-yl)-3-{4-[5-(2-hydroxy-ethoxyl)-benzimidazol-1-yl]-phenyl]urea] | > 2500 | > 1000 | > 2500 |

Continued, values first:

| GI50 [1] [nM] | GI50 [2] [nM] | GI50 [3] [nM] | Structure (SMILES) |
| --- | --- | --- | --- |
| > 2500 | > 1000 | > 2500 | CC(C)(C)c1cc(NC(=O)Nc2ccc(-n3cnc4ccc(OCCN5CCOCC5)cc43)cc2)no1 [Compound 27, 1-(5-tert-butyl-isoxazol-3-yl)-3-{4-[6-(2morpholin-4-yl-ethoxyl)-benzimidazol-1-yl]-phenyl}-urea] |
| > 2500 | > 1000 | > 2500 | CC(C)(C)c1cc(NC(=O)Nc2ccc(-n3cnc4cc(OCCO)ccc43)cc2)no1 [Compound 11, 1-(5-tert-butyl-isoxazol-3-yl)-3-{4-[5-(2-hydroxy-ethoxyl)-benzimidazol-1-yl]-phenyl]-urea] |
| > 2500 | > 1000 | > 2500 | CC(C)(C)c1cc(NC(=O)Nc2ccc(-n3cnc4cc(OCCN5CCOCC5)ccc43)cc2)[nH]n1 [Compound 89, 1-(5-tert-butyl-2H-pyrazol-3-yl)-3-{4-[5-(2-morpholin-4-yl-ethoxyl)-benzimidazol-1-yl]-phenyl}-urea] |
| > 2500 | > 1000 | > 2500 | COc1ccc2c(c1)ncn2-c1ccc(NC(=O)Nc2cc(C(C)(C)C)n[nH]2)cc1 [Compound 71, 1-(5-tert-butyl-2H-pyrazol-3-yl)-3-[4-(5-methoxyl-benzimidazol-1-yl)-phenyl]-urea] |
| > 2500 | 100 to 1000 | > 2500 | CC(C)(C)c1cc(NC(=O)Nc2ccc(-n3cnc4cc(O)ccc43)cc2)no1 [Compound 4, 1-(5-tert-butyl-isoxazol-3-yl)-3-[4-(5-hydroxy-benzimidazol-1-yl)-phenyl]-urea] |
